Patent US8088920B2, “3-trifluoromethyl-pyrazine-2-carboxylic acid amide derivatives as HDL-cholesterol raising agents” (Hoffmann-La Roche Inc., priority 2008, dated 2012)

System: THP-1 cells
Experiment: Cholesterol efflux assay
Format: cell-based
Details: Homo sapiens; THP-1 cells differentiated to macrophages, [3H]cholesterol loaded, efflux induced by 10 μg/ml Apolipoprotein AI, 6 hrs; percent stimulation over DMSO
Experimental: The ability of compounds of the invention to stimulate cholesterol efflux is determined in replicate cultures of THP-1 cells in 96-well microplates. Cells are plated at an initial density of 150,000 cells/well and differentiated to macrophages with the addition of PMA (100 ng/ml) for 72 hrs in 10% fetal bovine serum, 3 μl/L of b-mercaptoethanol, RPMI-1640 medium. Cells are washed once with RPMI-1640 and loaded with RPMI-1640 medium containing 2% FCS, 50 μg/ml acetylated LDL, and 10 μCi/ml [^3H]cholesterol for 48 hours at 37° C. After loading the cells are washed once with RPMI-1640 and incubated with the compound of interest from DMSO solutions for an additional 24 hrs in RPMI-1640 medium containing 1 mg/ml fatty acid free-bovine serum albumin (BSA). Upon incubation cells are washed once, and cholesterol efflux is induced by the addition of 10 μg/ml Apolipoprotein AI in RPMI-1640 containing 1 mg/ml BSA and in the presence of the compound for an additional 6 hrs. Following incubation radioactivity is determined in the supernatants and cholesterol efflux is expressed as the percent stimulation over replicate cultures treated only with DMSO. Sigmoidal curves were fitted using the XLfit3 program (ID Business Solutions Ltd. UK) and EC50 values were determined.

| SMILES | EC50 |
| --- | --- |
| CC(O)(CNC(=O)c1nc(-c2ccc(Cl)cc2)c(OCC2CC2)nc1C(F)(F)F)C1CC1 (stereo not drawn) [Example 3, 6-(4-chloro-phenyl)-5-cyclopropylmethoxy-3-trifluoromethyl-pyrazine-2-carboxylic acid (2-cyclopropyl-2-hydroxy-propyl)-amide] | 0.72 µM |
| CC(O)(CNC(=O)c1nc(-c2ccc(Cl)cc2)c(OCC(F)(F)F)nc1C(F)(F)F)C1CC1 (stereo not drawn) [Example 2, 6-(4-chloro-phenyl)-5-(2,2,2-trifluoro-ethoxy)-3-trifluoromethyl-pyrazine-2-carboxylic acid (2-cyclopropyl-2-hydroxy-propyl)-amide] | 0.57 µM |
| O=C(N[C@@H]1CCCC[C@H]1O)c1nc(-c2ccc(Cl)cc2)c(OCC2CC2)nc1C(F)(F)F [Example 1, 6-(4-chloro-phenyl)-5-cyclopropylmethoxy-3-trifluoromethyl-pyrazine-2-carboxylic acid ((1R,2R)-2-hydroxy-cyclohexyl)-amide] | 0.61 µM |
